# In patent US20230051589A1, “COMPOUNDS AND COMPOSITIONS FOR TREATING CONDITIONS ASSOCIATED WITH NLRP ACTIVITY” (Novartis AG, priority 2018, published 2023):
# Tested on: IL-1β production in PMA-differentiated THP-1 cells
# Assay: IL-1β production in PMA-differentiated THP-1 cells stimulated with gramicidin (hTHP-1 assay, 2% fetal bovine serum; Procedures 1-3)
# Type: cell-based, human
# Settings: Table B1; hTHP-1 assay containing 2% fetal bovine serum, gramicidin stimulation, IL-1β readout; read-out: hTHP-1 IC50 (average)
# Experimental: The following protocol is suitable for testing the activity of the compounds disclosed herein.
# Procedure 1: IL-1β Production in PMA-Differentiated THP-1 Cells Stimulated with Gramicidin.
# THP-1 cells were purchased from the American Type Culture Collection and sub-cultured according to instructions from the supplier. Cells were cultured in complete RPMI 1640 (containing 10% heat inactivated FBS, penicillin (100 units/ml) and streptomycin (100 μg/ml)), and maintained in log phase prior to experimental setup. Prior to the experiment, compounds were dissolved in dimethyl sulfoxide (DMSO) to generate a 30 mM stock. The compound stock was first pre-diluted in DMSO to 3, 0.34, 0.042 and 0.0083 mM intermediate concentrations and subsequently spotted using Echo550 liquid handler into an empty 384-well assay plate to achieve desired final concentration (e.g. 100, 33, 11, 3.7, 1.2, 0.41, 0.14, 0.046, 0.015, 0.0051, 0.0017 μM). DMSO was backfilled in the plate to achieve a final DMSO assay concentration of 0.37%. The plate was then sealed and stored at room temperature until required.
# THP-1 cells were treated with PMA (Phorbol 12-myristate 13-acetate) (20 ng/ml) for 16-18 hours. On the day of the experiment the media was removed and adherent cells were detached with trypsin for 5 minutes. Cells were then harvested, washed with complete RPMI 1640, spun down, and resuspended in RPMI 1640 (containing 2% heat inactivated FBS, penicillin (100 units/ml) and streptomycin (100 μg/ml). The cells were plated in the 384-well assay plate containing the spotted compounds at a density of 50,000 cells/well (final assay volume 50 μl). Cells were incubated with compounds for 1 hour and then stimulated with gramicidin (5 μM) (Enzo) for 2 hours. Plates were then centrifuged at 340 g for 5 min. Cell free supernatant (40 μL) was collected using a 96-channel PlateMaster (Gilson) and the production of IL-1β was evaluated by HTRF (cisbio). The plates were incubated for 18 h at 4° C. and read using the preset HTRF program (donor emission at 620 nm, acceptor emission at 668 nm) of the SpectraMax i3x spectrophotometer (Molecular Devices, software SoftMax 6). A vehicle only control and a dose titration of CRID3 (100-0.0017 μM) were run concurrently with each experiment.
# Procedure 2: IL-1β Production in PMA-Differentiated THP-1 Cells Stimulated with Gramicidin.
# THP-1 cells were purchased from the American Type Culture Collection and sub-cultured according to instructions from the supplier. Prior to experiments, cells were cultured in complete RPMI 1640 (containing 10% heat inactivated FBS, penicillin (100 units/ml) and streptomycin (100 μg/ml)), and maintained in log phase prior to experimental setup. Prior to the experiment THP-1 were treated with PMA (Phorbol 12-myristate 13-acetate) (20 ng/ml) for 16-18 hours. Compounds were dissolved in dimethyl sulfoxide (DMSO) to generate a 30 mM stock. On the day of the experiment the media was removed and adherent cells were detached with trypsin for 5 minutes. Cells were then harvested, washed with complete RPMI 1640, spun down, resuspended in RPMI 1640 (containing 2% heat inactivated FBS, penicillin (100 units/ml) and streptomycin (100 μg/ml) . The cells were plated in a 384-well plate at a density of 50,000 cells/well (final assay volume 50 μl). Compounds were first dissolved in assay medium to obtain a 5× top concentration of 500 μM. 10 step dilutions (1:3) were then undertaken in assay medium containing 1.67% DMSO. 5× compound solutions were added to the culture medium to achieve desired final concentration (e.g. 100, 33, 11, 3.7, 1.2, 0.41, 0.14, 0.046, 0.015, 0.0051, 0.0017 μM). Final DMSO concentration was at 0.37%. Cells were incubated with compounds for 1 hour and then stimulated with gramicidin (5 μM) (Enzo) for 2 hours. Plates were then centrifuged at 340 g for 5 min. Cell free supernatant (40 μL) was collected using a 96-channel PlateMaster (Gilson) and the production of IL-1β was evaluated by HTRF (cisbio). […]
row,Structure (SMILES),IC50 [µM]
1,"CC(C)(O)c1ncc(S(N)(=O)=NC(=O)Nc2c3c(cc4c2OCC4)CCC3)s1 (single isomer, unassigned) [Example 343, (R) or (S)-2-(2-hydroxy-propan-2-yl)-N′-((3,5,6,7-tetrahydro-2H-indeno[5,6-b]furan-8-yl)carbamoyl)-thiazole-5-sulfonimidamide]",0.04 to 0.2
2,"CC(C)(O)c1cnc(S(N)(=O)=NC(=O)Nc2c3c(cc4c2OCC4)CCC3)s1 (single isomer, unassigned) [Example 350, (R) or (S)-5-(2-hydroxy-propan-2-yl)-N′-((3,5,6,7-tetrahydro-2H-indeno-[5,6-b]furan-8-yl)carbam-oyl)thiazole-2-sulfonimid-amide]",0.04 to 0.2
3,"CC(C)(O)c1csc(S(N)(=O)=NC(=O)Nc2c3c(cc4c2OCC4)CCC3)n1 (single isomer, unassigned) [Example 354, (R) or (S)-4-(2-hydroxy-propan-2-yl)-N′-((3,5,6,7-tetrahydro-2H-indeno-[5,6-b]furan-8-yl)carbam-oyl)thiazole-2-sulfonimid-amide]",0.008 to 0.04
4,"CN(C)S(=O)(=NC(=O)Nc1c2c(cc3c1CCC3)CCC2)c1cc(C(C)(C)O)cs1 (single isomer, unassigned) [Example 357, (R) or (S)-N′-((1,2,3,5,6,7-hexahydro-s-indacen-4-yl)-carbamoyl)-4-(2-hydroxy-propan-2-yl)-N,N-dimeth-ylthiophene-2-sulfonimid-amide]",5 to 30
5,"CN(C)C(C)(C)c1ccc(S(N)(=O)=NC(=O)Nc2c3c(cc4c2CCC4)CCC3)cc1 (single isomer, unassigned) [Example 361, (R) or (S)-4-(2-(dimethyl-amino)propan-2-yl)-N′-((1,2,3,5,6,7-hexahydro-s-indacen-4-yl)carbamoyl)-benzenesulfonimidamide]",0.04 to 0.2
6,"CC(C)(O)c1ncc(S(N)(=O)=NC(=O)Nc2c3c(cc4c2C(=O)CC4)CCC3)s1 (single isomer, unassigned) [Example 364, (R) or (S)-2-(2-Hydroxy-propan-2-yl)-N′-((3-oxo-1,2,3,5,6,7-hexahydro-s-indacen-4-yl)carbamoyl)-thiazole-5-sulfonimidamide]",0.04 to 0.2
7,"CC(=O)N(C)Cc1ccc(S(N)(=O)=NC(=O)Nc2c3c(cc4c2CCC4)CCC3)cc1 (single isomer, unassigned) [Example 366, (R) or (S)-N-(4-N′-((1,2,3,5,6,7-hexahydro-s-indacen-4-yl)carbamoyl)-sulfamidimidoyl)benzyl)-N-methylacetamide]",1 to 5
8,"CC(c1ccc(S(N)(=O)=NC(=O)Nc2c3c(cc4c2CCC4)CCC3)cc1)N(C)C (single isomer, unassigned) [Example 372, (R) or (S)-4-(1-(dimethyl-amino)ethyl)-N′-((1,2,3,5,6,7-hexahydro-s-indacen-4-yl)carbamoyl)-benzenesulfonimidamide]",0.04 to 0.2
9,"CC(c1ccc(S(N)(=O)=NC(=O)Nc2c3c(cc4c2CCC4)CCC3)cc1)N(C)C (single isomer, unassigned) [Example 377, (R, R) or (R, S) or (S, S) or (S, R)-4-(1-(dimethyl-amino)ethyl)-N′-((1,2,3,5,6,7-hexahydro-s-indacen-4-yl)carbamoyl)-benzenesulfonimidamide]",0.04 to 0.2

# Continued, values first:
row,IC50 [µM],Structure (SMILES)
1,1 to 5,"COC1CN(Cc2ccc(S(N)(=O)=NC(=O)Nc3c4c(cc5c3CCC5)CCC4)cc2)C1 (single isomer, unassigned) [Example 379, (R) or (S)-N′-((1,2,3,5,6,7-hexahydro-s-indacen-4-yl)carbamoyl)-4-((3-methoxyazelidin-1-yl)-methyl)benzenesulfonimid-amide]"
2,0.008 to 0.04,"CN(C)Cc1cc(F)c(S(N)(=O)=NC(=O)Nc2c3c(cc4c2CCC4)CCC3)s1 (single isomer, unassigned) [Example 381, (R) or (S)-5-((dimethyl-amino)methyl)-3-fluoro-N′-((1,2,3,5,6,7-hexa-hydro-s-indacen-4-yl)-carbamoyl)thiophene-2-sulfonimidamide]"
3,0.008 to 0.04,"CC(C)(O)c1cc(F)c(S(N)(=O)=NC(=O)Nc2c3c(cc4c2CCC4)CCC3)s1 (single isomer, unassigned) [Example 385, (R) or (S)-3-fluoro-N′-((1,2,3,5,6,7-hexahydro-s-indacen-4-yl)carbamoyl)-5-(2-hydroxypropan-2-yl)thiophene-2-sulfonimid-amide]"
4,0.04 to 0.2,"COC(C)(C)c1ncc(S(N)(=O)=NC(=O)Nc2c3c(cc4c2CCC4)CCC3)s1 (single isomer, unassigned) [Example 388, (R) or (S)-N′-((1,2,3,5,6,7-hexahydro-s-indacen-4-yl)carbamoyl)-2-(2-meth-oxypropan-2-yl)thiazole-5-sulfonimidamide]"
5,1 to 5,"COCCN(C)Cc1ccc(S(N)(=O)=NC(=O)Nc2c3c(cc4c2CCC4)CCC3)cc1 (single isomer, unassigned) [Example 390, (R) or (S)-N′-((1,2,3,5,6,7-hexahydro-s-indacen-4-yl)carbamoyl)-4-(((2-meth-oxyethyl)(methyl)amino)-methyl)benzenesulfonimid-amide]"
6,0.2 to 1,"CC(C)(O)c1ncc(S(N)(=O)=NC(=O)Nc2c3c(cc4c2C(O)CC4)CCC3)s1 (single isomer, unassigned) [Example 391, (R, R) or (R, S) or (S, S) or (S, R)-N′-((3-hydroxy-1,2,3,5,6,7-hexahydro-s-indacen-4-yl)carbamoyl)-2-(2-hydroxypropan-2-yl)thiazole-5-sulfonimid-amide]"
7,0.2 to 1,"CC(C)(O)c1ncc(S(N)(=O)=NC(=O)Nc2c3c(cc4c2C(O)CC4)CCC3)s1 (single isomer, unassigned) [Example 392, (R, S) or (R, R) or (S, R) or (S, S)-N′-((3-hydroxy-1,2,3,5,6,7-hexahydroxy-indacen-4-yl)carbamoyl)-2-(2-hydroxypropan-2-yl)thiazole-5-sulfonimid-amide]"
8,1 to 5,"CN1CCc2cc(S(N)(=O)=NC(=O)Nc3c4c(cc5c3CCC5)CCC4)ccc2C1 (single isomer, unassigned) [Example 395, (R) or (S)-N′-((1,2,3,5,6,7-hexahydro-s-indacen-4-yl)carbamoyl)-2-methyl-1,2,3,4-tetrahydroisoquin-oline-6-sulfonimidamide]"
9,0.2 to 1,"COC(C)(C)c1ccc(S(N)(=O)=NC(=O)Nc2c3c(cc4c2CCC4)CCC3)cc1 (single isomer, unassigned) [Example 399, (R) or (S)-N′-((1,2,3,5,6,7-hexahydro-s-indacen-4-yl)carbamoyl)-4-(2-meth-oxypropan-2-yl)benzene-sulfonimidamide]"
10,1 to 5,"CC(C)c1ccc(S(N)(=O)=NC(=O)Nc2c3c(cc4c2CCC4)CCC3)cn1 (single isomer, unassigned) [Example 402, (S) or (R)-N′-((1,2,3,5,6,7-hexahydro-s-indacen-4-yl)carbamoyl)-6-isopropyl-pyridine-3-sulfonimidamide]"
11,1 to 5,"NCc1ccc(S(N)(=O)=NC(=O)Nc2c3c(cc4c2CCC4)CCC3)cc1 (single isomer, unassigned) [Example 411, (R) or (S)-4-(aminomethyl)-N′-((1,2,3,5,6,7-hexahydro-5-indacen-4-yl)carbamoyl)-benzenesulfonimidamide]"
